Data taken from PMC5600900 (Journal of medicinal chemistry, 2016).

Molecular target: WT-CXCL12 (Homo sapiens, UniProt P48061)
Test: 2D 1H-15N SOFAST-HMQC NMR titration, binding to WT-CXCL12
Settings: 2D 1H-15N SOFAST-HMQC screen of docking hits

Row | SMILES | binding to WT-CXCL12 (chemical shift perturbations)
1 | O=C(O)CCn1cc(C(=O)c2ccccc2O)cc1-c1ccncc1 [compound 4] | bind non-specifically
2 | COc1ccc(C2C(C(=O)O)CC(=O)N2Cc2ccsc2)cc1 (stereo not shown) [compound 5] | bind non-specifically
3 | CC(C)O.CCCOc1ccc(C(Nc2ccc(F)cc2)P(=O)(O)O)cc1 (stereo not shown) [compound 6] | induced chemical shift perturbations to residues associated with the I4/I6 binding site
4 | O=C(O)CC1c2ccccc2CCN1C(=O)Nc1cccc(F)c1 (stereo not shown) [compound 7] | induced chemical shift perturbations to residues associated with the I4/I6 binding site
